{"source": "ChEMBL document CHEMBL3244232", "about": "“Steric effects of substituents on phenethylamine hallucinogens. 3,4-(Methylenedioxy)amphetamine analogues alkylated on the dioxole ring” (J Med Chem, 1979)", "key": {"[1]": {"test_system": "Mus musculus", "assay": "Effect on Swiss Webster mouse assessed as sleeping at <0.3 mmol/kg, ip up to 90 mins", "format": "ADME, organism-based", "settings": "in vivo, 1.5 h"}, "[2]": {"test_system": "Mus musculus", "assay": "Toxicity in Swiss Webster mouse assessed as occasional tremor at 0.3 mmol/kg, ip up to 20 mins", "format": "organism-based", "settings": "in vivo"}, "[3]": {"assay": "Chemical stability of the compound at 0.1 M at pH 5.3 at 37 degC after 24 hrs by 1H NMR spectroscopy", "format": "physicochemical", "settings": "buffer, pH 5.3, 24 h"}, "[4]": {"test_system": "Mus musculus", "assay": "Induction of hyperactivity in Swiss Webster mouse assessed as sniffing at <0.3 mmol/kg, ip up to 90 mins", "format": "functional, organism-based"}, "[5]": {"test_system": "Mus musculus", "assay": "Toxicity in Swiss Webster mouse assessed as recovery at 0.675 mmol/kg, ip after 30 mins", "format": "organism-based", "settings": "in vivo, 0.5 h"}, "[6]": {"test_system": "Mus musculus", "assay": "Induction of spontaneous activity in Swiss Webster mouse assessed as spontaneous activity counts at 0.225 mmol/kg, ip measured over 90 mins", "format": "functional"}, "[7]": {"test_system": "Mus musculus", "assay": "Toxicity in Swiss Webster mouse assessed as mortality at 0.675 mmol/kg, ip after 5 mins", "format": "organism-based", "settings": "in vivo"}, "[8]": {"test_system": "Mus musculus", "assay": "Effect on Swiss Webster mouse assessed as sleeping at 0.3 mmol/kg, ip after 20 mins", "format": "ADME, organism-based", "settings": "in vivo"}, "[9]": {"test_system": "Mus musculus", "assay": "Toxicity in Swiss Webster mouse assessed as tremor at 0.675 mmol/kg, ip after 8 to 10 mins", "format": "organism-based", "settings": "in vivo"}, "[10]": {"assay": "Toxicity in ip dosed Swiss Webster mouse after 5 mins", "format": "organism-based", "settings": "in vivo"}, "[11]": {"test_system": "Mus musculus", "assay": "Induction of hyperactivity in Swiss Webster mouse assessed as exopthalmia at <0.3 mmol/kg, ip up to 90 mins", "format": "functional, organism-based"}, "[12]": {"test_system": "Mus musculus", "assay": "Induction of spontaneous activity in Swiss Webster mouse assessed as spontaneous activity counts at 0.30 mmol/kg, ip measured over 90 mins", "format": "functional"}, "[13]": {"test_system": "Mus musculus", "assay": "Induction of spontaneous activity in Swiss Webster mouse assessed as spontaneous activity counts at 0.075 mmol/kg, ip measured over 90 mins", "format": "functional"}, "[14]": {"assay": "Octanol-water partition coefficient, log P of the compound", "format": "physicochemical"}, "[15]": {"test_system": "Mus musculus", "assay": "Toxicity in Swiss Webster mouse assessed as clonic convulsions at 0.3 mmol/kg, ip up to 20 mins", "format": "organism-based", "settings": "in vivo"}, "[16]": {"test_system": "Mus musculus", "assay": "Induction of hyperactivity in Swiss Webster mouse assessed as salivation at <0.3 mmol/kg, ip up to 90 mins", "format": "functional, organism-based"}, "[17]": {"test_system": "Mus musculus", "assay": "Induction of hyperactivity in Swiss Webster mouse assessed as piloerection at <0.3 mmol/kg, ip up to 90 mins", "format": "functional, organism-based"}, "[18]": {"test_system": "Mus musculus", "assay": "Induction of spontaneous activity in Swiss Webster mouse assessed as spontaneous activity counts at 0.025 mmol/kg, ip measured over 90 mins", "format": "functional"}, "[19]": {"test_system": "Mus musculus", "assay": "Induction of hyperactivity in Swiss Webster mouse assessed as exploratory behavior at <0.3 mmol/kg, ip up to 90 mins", "format": "functional, organism-based"}, "[20]": {"test_system": "Mus musculus", "assay": "Toxicity in Swiss Webster mouse assessed as depression at <0.3 mmol/kg, ip up to 90 mins", "format": "organism-based", "settings": "in vivo, 1.5 h"}, "[21]": {"test_system": "Mus musculus", "assay": "Toxicity in Swiss Webster mouse assessed as mortality at 0.338 mmol/kg, ip after 5 mins", "format": "organism-based", "settings": "in vivo"}, "[22]": {"test_system": "Mus musculus", "assay": "Effect on Swiss Webster mouse assessed as sleeping at 0.675 mmol/kg, ip after 1 hr", "format": "ADME, organism-based", "settings": "in vivo"}, "[23]": {"test_system": "Mus musculus", "assay": "Toxicity in Swiss Webster mouse assessed as clonic convulsions at 0.675 mmol/kg, ip after 8 to 10 mins", "format": "organism-based", "settings": "in vivo"}, "[24]": {"test_system": "Mus musculus", "assay": "Induction of hyperactivity in Swiss Webster mouse assessed as grooming at <0.3 mmol/kg, ip up to 90 mins", "format": "functional, organism-based"}, "[25]": {"test_system": "Mus musculus", "assay": "Induction of hyperactivity in Swiss Webster mouse assessed as sniffing at 0.025 to 0.3 mmol/kg, ip up to 90 mins", "format": "functional, organism-based"}, "[26]": {"test_system": "Mus musculus", "assay": "Induction of hyperactivity in Swiss Webster mouse assessed as grooming at 0.025 to 0.3 mmol/kg, ip up to 90 mins", "format": "functional, organism-based"}, "[27]": {"test_system": "Mus musculus", "assay": "Induction of hyperactivity in Swiss Webster mouse assessed as exopthalmia at 0.025 to 0.3 mmol/kg, ip up to 90 mins", "format": "functional, organism-based"}, "[28]": {"test_system": "Mus musculus", "assay": "Induction of hyperactivity in Swiss Webster mouse assessed as pilomotor erection at 0.025 to 0.3 mmol/kg, ip up to 90 mins", "format": "functional, organism-based"}, "[29]": {"test_system": "Mus musculus", "assay": "Induction of hyperactivity in Swiss Webster mouse assessed as salivation at 0.025 to 0.3 mmol/kg, ip up to 90 mins", "format": "functional, organism-based"}, "[30]": {"test_system": "Mus musculus", "assay": "Induction of hyperactivity in Swiss Webster mouse assessed as exploratory behavior at 0.025 to 0.3 mmol/kg, ip up to 90 mins", "format": "functional, organism-based"}, "[31]": {"test_system": "Mus musculus", "assay": "Induction of hyperactivity in Swiss Webster mouse assessed as salivation at 0.225 to 0.3 mmol/kg, ip up to 90 mins", "format": "functional, organism-based"}, "[32]": {"test_system": "Mus musculus", "assay": "Toxicity in Swiss Webster mouse assessed as symmetric clonic convulsions with vocalization at 0.675 mmol/kg, ip after 2 to 3 mins", "format": "organism-based", "settings": "in vivo"}, "[33]": {"test_system": "Mus musculus", "assay": "Effect on Swiss Webster mouse assessed as sleeping at 0.025 to 0.3 mmol/kg, ip", "format": "ADME, organism-based", "settings": "in vivo"}, "[34]": {"test_system": "Mus musculus", "assay": "Induction of hyperactivity in Swiss Webster mouse assessed as exopthalmia at 0.225 to 0.3 mmol/kg, ip up to 90 mins", "format": "functional, organism-based"}, "[35]": {"test_system": "Mus musculus", "assay": "Toxicity in Swiss Webster mouse assessed as tremor at 0.675 mmol/kg, ip after 2 to 3 mins", "format": "organism-based", "settings": "in vivo"}, "[36]": {"test_system": "Mus musculus", "assay": "Toxicity in Swiss Webster mouse assessed as ataxia at 0.675 mmol/kg, ip after 2 to 3 mins", "format": "organism-based", "settings": "in vivo"}, "[37]": {"test_system": "Mus musculus", "assay": "Induction of hyperactivity in Swiss Webster mouse assessed as grooming at 0.225 to 0.3 mmol/kg, ip up to 90 mins", "format": "functional, organism-based"}}, "note": "Calls of active or inactive are those of the source. The calls are words filed in the database; no cut-off is given here."}
{"smiles": "CC(N)Cc1ccc2c(c1)OC(C)(C)O2", "note": "(centres undefined)", "values": [{"measurement": "Activity", "setting": "[1]", "result": "Non-toxic"}, {"measurement": "Activity", "setting": "[2]", "result": "Toxic"}, {"measurement": "Stability", "setting": "[3]", "result": "Stable"}, {"measurement": "Activity", "setting": "[4]", "result": "inactive"}, {"measurement": "Activity", "setting": "[5]", "result": "Non-toxic"}, {"measurement": "Activity", "setting": "[6]", "result": 17, "unit": "min⁻¹"}, {"measurement": "Activity", "setting": "[7]", "result": "Toxic"}, {"measurement": "Activity", "setting": "[8]", "result": "Non-toxic"}, {"measurement": "Activity", "setting": "[9]", "result": "Toxic"}, {"measurement": "MTD at 5 min", "setting": "[10]", "result": 338, "unit": "µmol/kg"}, {"measurement": "Activity", "setting": "[11]", "result": "inactive"}, {"measurement": "Activity", "setting": "[12]", "result": 33, "unit": "min⁻¹"}, {"measurement": "Activity", "setting": "[13]", "result": 27, "unit": "min⁻¹"}, {"measurement": "logP", "setting": "[14]", "result": 2.6}, {"measurement": "Activity", "setting": "[15]", "result": "Toxic"}, {"measurement": "Activity", "setting": "[16]", "result": "inactive"}, {"measurement": "Activity", "setting": "[17]", "result": "inactive"}, {"measurement": "Activity", "setting": "[18]", "result": 30, "unit": "min⁻¹"}, {"measurement": "Activity", "setting": "[19]", "result": "inactive"}, {"measurement": "Activity", "setting": "[20]", "result": "Toxic"}, {"measurement": "Activity", "setting": "[21]", "result": "Toxic"}, {"measurement": "Activity", "setting": "[22]", "result": "Non-toxic"}, {"measurement": "Activity", "setting": "[23]", "result": "Toxic"}, {"measurement": "Activity", "setting": "[24]", "result": "inactive"}]}
{"smiles": "CC(N)Cc1ccc2c(c1)OCO2", "note": "(centres undefined) [TENAMFETAMINE]", "values": [{"measurement": "Activity", "setting": "[25]", "result": "Active"}, {"measurement": "Activity", "setting": "[26]", "result": "Active"}, {"measurement": "Activity", "setting": "[6]", "result": 105, "unit": "min⁻¹"}, {"measurement": "Activity", "setting": "[27]", "result": "Active"}, {"measurement": "Activity", "setting": "[13]", "result": 276, "unit": "min⁻¹"}, {"measurement": "logP", "setting": "[14]", "result": 1.64}, {"measurement": "Activity", "setting": "[28]", "result": "Active"}, {"measurement": "Activity", "setting": "[18]", "result": 64, "unit": "min⁻¹"}, {"measurement": "Activity", "setting": "[29]", "result": "Active"}, {"measurement": "Activity", "setting": "[30]", "result": "Active"}]}
{"smiles": "CC(N)Cc1ccc2c(c1)OC(C)O2", "note": "(centres undefined)", "values": [{"measurement": "Activity", "setting": "[31]", "result": "Active"}, {"measurement": "Activity", "setting": "[25]", "result": "Active"}, {"measurement": "Activity", "setting": "[32]", "result": "Toxic"}, {"measurement": "Activity", "setting": "[33]", "result": "Non-toxic"}, {"measurement": "Activity", "setting": "[26]", "result": "Active"}, {"measurement": "Activity", "setting": "[6]", "result": 94, "unit": "min⁻¹"}, {"measurement": "Activity", "setting": "[7]", "result": "Toxic"}, {"measurement": "MTD at 5 min", "setting": "[10]", "result": 300, "unit": "µmol/kg"}, {"measurement": "Activity", "setting": "[27]", "result": "Active"}, {"measurement": "Activity", "setting": "[12]", "result": 192, "unit": "min⁻¹"}, {"measurement": "Activity", "setting": "[13]", "result": 25, "unit": "min⁻¹"}, {"measurement": "logP", "setting": "[14]", "result": 2.1}, {"measurement": "Activity", "setting": "[28]", "result": "Active"}, {"measurement": "Activity", "setting": "[34]", "result": "Active"}, {"measurement": "Activity", "setting": "[18]", "result": 39, "unit": "min⁻¹"}, {"measurement": "Activity", "setting": "[35]", "result": "Toxic"}, {"measurement": "Activity", "setting": "[29]", "result": "Active"}, {"measurement": "Activity", "setting": "[36]", "result": "Toxic"}, {"measurement": "Activity", "setting": "[30]", "result": "Active"}, {"measurement": "Activity", "setting": "[37]", "result": "Active"}]}
